From ChEMBL document CHEMBL1201862, “PubChem BioAssay data set” (2004) come the findings set out here.

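Five concentrations, 48 hours, 96-well plates. GI50 marks 50% less growth.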 The source made the active and inactive calls. Cut-off read from the data, not from the text of the source: active = GI50 up to about 1.1 µM and inactive = higher.

Some test systems named below: RPMI-8226; A549; U-251; OVCAR-8; HOP-92; HCT-116; MOLT-4; OVCAR-5; DU-145; SF-295; UO-31; NCI/ADR-RES; MDA-MB-435; M19-MEL; SF-268; IGROV-1; PC-3; M14; MCF7; 786-0.
Common to all, as to experiment: NCI anticancer screen, dose series, 48 h

For the molecule `C=CC/C=C/Cc1csc(C(C)(C)C(O)C/C=C/C(=C)CCNC(=O)OC)n1` (stereo not given), the GI50 was 30.7 µM (inactive) with RPMI-8226; 41.4 µM (inactive) in the assay on A549; 74.5 µM (inactive) in the assay on U-251; > 73.5 µM (inactive) in the assay with OVCAR-8; 20.6 µM (inactive) in the assay on HOP-92; 0.679 µM (active) in the assay on HCT-116. In addition, the GI50 was 36.1 µM (inactive) in the assay with MOLT-4; > 100 µM (inactive) with OVCAR-5; > 100 µM (inactive) in the assay on DU-145; 1.28 µM (inactive) in the assay on SF-295; > 71.3 µM (inactive) in the assay with UO-31; 75.7 µM (inactive) with NCI/ADR-RES. Besides, the GI50 in the assay with MDA-MB-435 is 49.7 µM (inactive); with M19-MEL it was 25.5 µM (inactive); in the assay on SF-268 it was 80.4 µM (inactive); with IGROV-1, 28.4 µM (inactive); in the assay with PC-3, > 100 µM (inactive); in the assay with M14, 43.5 µM (inactive). For the same molecule, the GI50 was 96.2 µM (inactive) with MCF7 and > 100 µM (inactive) in the assay on 786-0.
